Experimental data as given in the NIST ThermoML archive (doi:10.1021/je101232g).

Settings: Liquid

CCCCCCCCCCCCCC[P+](CCCCCC)(CCCCCC)CCCCCC.CS(=O)(=O)[O-] [trihexyltetradecylphosphonium methanesulfonate]
mass density [kg/m3]
Settings | 283.15 K | 293.15 K | 303.15 K | 313.15 K | 323.15 K | 333.15 K
100 kPa | 938 | 931.8 | 925.7 | 919.6 | 913.4 | 907.4
1000 kPa | 938.4 | 932.3 | 926.2 | 920.1 | 914 | 908.1
2000 kPa | 938.9 | 932.8 | 926.7 | 920.7 | 914.6 | 908.7
3000 kPa | 939.5 | 933.4 | 927.3 | 921.3 | 915.3 | 909.3
4000 kPa | 940.1 | 933.9 | 927.9 | 921.9 | 915.9 | 910
5000 kPa | 940.5 | 934.4 | 928.4 | 922.5 | 916.6 | 910.6
10000 kPa | 943.1 | 937.1 | 931.3 | 925.3 | 919.5 | 913.7
15000 kPa | 945.6 | 939.7 | 934 | 928.1 | 922.3 | 916.7
20000 kPa | 948 | 942.2 | 936.6 | 930.8 | 925.2 | 919.6
25000 kPa | 950.3 | 944.6 | 939 | 933.5 | 927.9 | 922.3
30000 kPa | 952.7 | 947.1 | 941.5 | 935.9 | 930.5 | 925
35000 kPa | 954.9 | 949.4 | 943.8 | 938.4 | 933.1 | 927.7
40000 kPa | 957.1 | 951.6 | 946.2 | 940.8 | 935.5 | 930.2
45000 kPa | 959.3 | 953.9 | 948.5 | 943.3 | 938.1 | 932.7
